Our source for the IC50 values is US12281125B2, “Rapamycin derivatives” (NOVARTIS AG, priority 2018, dated 2025).

The assay relates to mTORc1 signaling, pS6 (Ser240/244) in MEF TSCl−/− cells. Description: Cell-based assay for rapalog potency (pS6) in MEF TSCl−/− cells. The conditions noted are these: Mus musculus, 2 hours treatment, average from multiple assays. The procedure:
Rapalog potency was determined using MEF TSCl−/− cell based assay. MEF TSCl−/− cells are Mouse Embryonic Fibroblasts deficient in Tuberous sclerosis protein—TSCl, which negatively regulates mTORc1 signaling and thus display constitutive mTORc1 activation, resulting in phosphorylation (activation) of downstream molecules. This cell-based assay is used to measure inhibition (de-phosphorylation) of S6 and 4EBP1 by rapalogs or other mTOR inhibitors.
MEF TSCl−/− cells were plated on Poly-D-lysine coated 384 well Griener clear bottom plates and incubated overnight at 37° C., 5% CO2. On the following day, cells were washed 8 times with “Hard starve” solution (1 L DPBS+1 g D-(+) glucose+10 ml of 7.5% Sodium Bicarbonate+20 ml of 1M HEPES) and incubated for further 2 hours in the same solution. Cells were next treated with compounds with decreasing concentrations (8 points at 3.16 fold dilutions) and incubated for 2 hours at 37° C., 5% CO2. Cells were fixed with 4% paraformaldehyde for 30 min and washed 5 times with TBS-EDTA followed by immuno-staining with fluorescent tag labeled antibodies for pS6 (Ser240/244) (Cell Signaling #9468) and p4EBP1 (Thr 37/46) (Cell Signaling #5123). Nuclei were visualized with Hoechst (ThermoFisher Scientific #H3570) staining. Cells were imaged (InCell 600) using respective fluorescence channels and the potency of mTOR inhibitors was defined by pS6 IC50 (nM).
In vitro potency of mTOR inhibitors was defined by pS6 IC50 (nM) in MEF TSCl−/− cells.
IC50 values are calculated as the average from multiple assays.
`CCCS(=O)(=O)N[C@H]1C[C@@H]2CC[C@@H](C)[C@@](O)(O2)C(=O)C(=O)N2CCCC[C@H]2C(=O)O[C@H]([C@H](C)C[C@@H]2CC[C@@H](O)[C@H](OC)C2)CC[C@H](C)/C=C(\C)[C@@H](O)[C@@H](OC)C(=O)[C@H](C)C[C@H](C)/C=C/C=C/C=C/1C` [Compound 5] gave an IC50 of 1.8 nM. In other words, the single-digit nanomolar range.

As to `CCCS(=O)(=O)N[C@@H]1C[C@@H]2CC[C@@H](C)[C@@](O)(O2)C(=O)C(=O)N2CCCC[C@H]2C(=O)O[C@H]([C@H](C)C[C@@H]2CC[C@@H](O)[C@H](OC)C2)CC[C@H](C)/C=C(\C)[C@@H](O)[C@@H](OC)C(=O)[C@H](C)C[C@H](C)/C=C/C=C/C=C/1C` [Compound 6], it took 13 nM to reach half-maximal inhibition (IC50).

In turn, `CO[C@@H]1C[C@H](C[C@@H](C)[C@@H]2CC[C@H](C)/C=C(\C)[C@@H](O)[C@@H](OC)C(=O)[C@H](C)C[C@H](C)/C=C/C=C/C=C(\C)[C@@H](NS(=O)(=O)C(C)C)C[C@@H]3CC[C@@H](C)[C@@](O)(O3)C(=O)C(=O)N3CCCC[C@H]3C(=O)O2)CC[C@H]1O` [Compound 7] gave an IC50 of 2.4 nM.

In the case of `CO[C@@H]1C[C@H](C[C@@H](C)[C@@H]2CC[C@H](C)/C=C(\C)[C@@H](O)[C@@H](OC)C(=O)[C@H](C)C[C@H](C)/C=C/C=C/C=C(\C)[C@H](NS(=O)(=O)C(C)C)C[C@@H]3CC[C@@H](C)[C@@](O)(O3)C(=O)C(=O)N3CCCC[C@H]3C(=O)O2)CC[C@H]1O` [Compound 8], half-maximal inhibition (IC50) required 4.5 nM.

As to `CO[C@@H]1C[C@H](C[C@@H](C)[C@@H]2CC[C@H](C)/C=C(\C)[C@@H](O)[C@@H](OC)C(=O)[C@H](C)C[C@H](C)/C=C/C=C/C=C(\C)[C@@H](NS(=O)(=O)CC(C)C)C[C@@H]3CC[C@@H](C)[C@@](O)(O3)C(=O)C(=O)N3CCCC[C@H]3C(=O)O2)CC[C@H]1O` [Compound 9], half-maximal inhibition (IC50) required 2.7 nM.

Molecule `CO[C@@H]1C[C@H](C[C@@H](C)[C@@H]2CC[C@H](C)/C=C(\C)[C@@H](O)[C@@H](OC)C(=O)[C@H](C)C[C@H](C)/C=C/C=C/C=C(\C)[C@H](NS(=O)(=O)CC(C)C)C[C@@H]3CC[C@@H](C)[C@@](O)(O3)C(=O)C(=O)N3CCCC[C@H]3C(=O)O2)CC[C@H]1O` [Compound 10] yielded a half-maximal inhibitory concentration (IC50) of 12 nM.

Turning to `CO[C@@H]1C[C@H](C[C@@H](C)[C@@H]2CC[C@H](C)/C=C(\C)[C@@H](O)[C@@H](OC)C(=O)[C@H](C)C[C@H](C)/C=C/C=C/C=C(\C)[C@@H](NS(=O)(=O)C3CCC3)C[C@@H]3CC[C@@H](C)[C@@](O)(O3)C(=O)C(=O)N3CCCC[C@H]3C(=O)O2)CC[C@H]1O` [Compound 13], the IC50 worked out at 5.3 nM.

Molecule `CO[C@@H]1C[C@H](C[C@@H](C)[C@@H]2CC[C@H](C)/C=C(\C)[C@@H](O)[C@@H](OC)C(=O)[C@H](C)C[C@H](C)/C=C/C=C/C=C(\C)[C@H](NS(=O)(=O)C3CCC3)C[C@@H]3CC[C@@H](C)[C@@](O)(O3)C(=O)C(=O)N3CCCC[C@H]3C(=O)O2)CC[C@H]1O` [Compound 14] registered an IC50 of 7.2 nM.

The molecule `CO[C@@H]1C[C@H](C[C@@H](C)[C@@H]2CC[C@H](C)/C=C(\C)[C@@H](O)[C@@H](OC)C(=O)[C@H](C)C[C@H](C)/C=C/C=C/C=C(\C)[C@@H](NS(=O)(=O)C3CCCC3)C[C@@H]3CC[C@@H](C)[C@@](O)(O3)C(=O)C(=O)N3CCCC[C@H]3C(=O)O2)CC[C@H]1O` [Compound 15] yielded a concentration for half-maximal inhibition (IC50) of 3.6 nM.

`CO[C@@H]1C[C@H](C[C@@H](C)[C@@H]2CC[C@H](C)/C=C(\C)[C@@H](O)[C@@H](OC)C(=O)[C@H](C)C[C@H](C)/C=C/C=C/C=C(\C)[C@H](NS(=O)(=O)C3CCCC3)C[C@@H]3CC[C@@H](C)[C@@](O)(O3)C(=O)C(=O)N3CCCC[C@H]3C(=O)O2)CC[C@H]1O` [Compound 16] had a 50% inhibitory concentration (IC50) of 50 nM.

`CO[C@@H]1C[C@H](C[C@@H](C)[C@@H]2CC[C@H](C)/C=C(\C)[C@@H](O)[C@@H](OC)C(=O)[C@H](C)C[C@H](C)/C=C/C=C/C=C(\C)[C@@H](NS(=O)(=O)CCCCl)C[C@@H]3CC[C@@H](C)[C@@](O)(O3)C(=O)C(=O)N3CCCC[C@H]3C(=O)O2)CC[C@H]1O` [Compound 17] yielded an IC50 of 1.6 nM.

As for `CO[C@@H]1C[C@H](C[C@@H](C)[C@@H]2CC[C@H](C)/C=C(\C)[C@@H](O)[C@@H](OC)C(=O)[C@H](C)C[C@H](C)/C=C/C=C/C=C(\C)[C@@H](NS(=O)(=O)CCO)C[C@@H]3CC[C@@H](C)[C@@](O)(O3)C(=O)C(=O)N3CCCC[C@H]3C(=O)O2)CC[C@H]1O` [Compound 19], half-maximal inhibition (IC50) was put at 0.34 nM.

On to `CO[C@@H]1C[C@H](C[C@@H](C)[C@@H]2CC[C@H](C)/C=C(\C)[C@@H](O)[C@@H](OC)C(=O)[C@H](C)C[C@H](C)/C=C/C=C/C=C(\C)[C@H](NS(=O)(=O)CCO)C[C@@H]3CC[C@@H](C)[C@@](O)(O3)C(=O)C(=O)N3CCCC[C@H]3C(=O)O2)CC[C@H]1O` [Compound 20], for which the midpoint of inhibition, the IC50, lay at 1.7 nM.

Regarding `CO[C@@H]1C[C@H](C[C@@H](C)[C@@H]2CC[C@H](C)/C=C(\C)[C@@H](O)[C@@H](OC)C(=O)[C@H](C)C[C@H](C)/C=C/C=C/C=C(\C)[C@H](NS(C)(=O)=O)C[C@@H]3CC[C@@H](C)[C@@](O)(O3)C(=O)C(=O)N3CCCC[C@H]3C(=O)O2)CC[C@@H]1n1cnnn1` [Compound 21], the IC50 was found to be 2.1 nM.

In turn, `CO[C@@H]1C[C@H](C[C@@H](C)[C@@H]2CC[C@H](C)/C=C(\C)[C@@H](O)[C@@H](OC)C(=O)[C@H](C)C[C@H](C)/C=C/C=C/C=C(\C)[C@@H](NS(C)(=O)=O)C[C@@H]3CC[C@@H](C)[C@@](O)(O3)C(=O)C(=O)N3CCCC[C@H]3C(=O)O2)CC[C@@H]1n1cnnn1` [Compound 22] had an IC50 of 0.11 nM.

As for `CO[C@@H]1C[C@H](C[C@@H](C)[C@@H]2CC[C@H](C)/C=C(\C)[C@@H](O)[C@@H](OC)C(=O)[C@H](C)C[C@H](C)/C=C/C=C/C=C(\C)[C@H](NS(C)(=O)=O)C[C@@H]3CC[C@@H](C)[C@@](O)(O3)C(=O)C(=O)N3CCCC[C@H]3C(=O)O2)CC[C@H]1OP(C)(C)=O` [Compound 23], it took 26 nM to reach half-maximal inhibition (IC50).

Consider `CO[C@@H]1C[C@H](C[C@@H](C)[C@@H]2CC[C@H](C)/C=C(\C)[C@@H](O)[C@@H](OC)C(=O)[C@H](C)C[C@H](C)/C=C/C=C/C=C(\C)[C@H](NS(C)(=O)=O)C[C@@H]3CC[C@@H](C)[C@@](O)(O3)C(=O)C(=O)N3CCCC[C@H]3C(=O)O2)CC[C@H]1OCCO` [Compound 25], for which 1.8 nM corresponded to half-maximal inhibition (IC50).

In the case of `CO[C@@H]1C[C@H](C[C@@H](C)[C@@H]2CC[C@H](C)/C=C(\C)[C@@H](O)[C@@H](OC)C(=O)[C@H](C)C[C@H](C)/C=C/C=C/C=C(\C)[C@@H](N(C)S(C)(=O)=O)C[C@@H]3CC[C@@H](C)[C@@](O)(O3)C(=O)C(=O)N3CCCC[C@H]3C(=O)O2)CC[C@H]1OP(C)(C)=O` [Compound 27], half-maximal inhibition (IC50) required 1.9 nM.

`CO[C@@H]1C[C@H](C[C@@H](C)[C@@H]2CC[C@H](C)/C=C(\C)[C@@H](O)[C@@H](OC)C(=O)[C@H](C)C[C@H](C)/C=C/C=C/C=C(\C)[C@@H](N)C[C@@H]3CC[C@@H](C)[C@@](O)(O3)C(=O)C(=O)N3CCCC[C@H]3C(=O)O2)CC[C@H]1O` [Compound 28] showed an IC50 of 0.35 nM.

For `CO[C@@H]1C[C@H](C[C@@H](C)[C@@H]2CC[C@H](C)/C=C(\C)[C@@H](O)[C@@H](OC)C(=O)[C@H](C)C[C@H](C)/C=C/C=C/C=C(\C)[C@H](N)C[C@@H]3CC[C@@H](C)[C@@](O)(O3)C(=O)C(=O)N3CCCC[C@H]3C(=O)O2)CC[C@H]1O` [Compound 29], inhibition was half-maximal at 30 nM (IC50).
